From patent US20240158370A1, “CK1 alpha AND DUAL CK1 alpha / GSPT1 DEGRADING COMPOUNDS” (Innovo Therapeutics, Inc., priority 2022, published 2024) come the findings set out here.

Assay [1] has as its target T1, CK1α (Homo sapiens, UniProt P48729+Q96SW2).
T1 construct: CSNK1A1-HiBit KI HEK293(LgBit) Cells; host or cells: HEK293(LgBit) knock-in cells
The experiment in a line: HiBiT degradation assay, CK1α, Procedure A. Format: cell-based. An outline of the steps:
(§1)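 Six-hour treatment at 37° C, ten doses between 10 μM and 0.005 μM, then HiBiT lytic luminescence. Fitted DC50 and Ymin.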
For orientation: With HiBiT, luminescence reflects the tagged protein that the partner subunit can reach.

Assay [2] deals with GSPT1 (Homo sapiens, UniProt P15170+Q96SW2). The assay is described as follows: HiBiT degradation assay, GSPT1, Procedure A. Format: cell-based. The arrangement: HiBit-GSPT1 KI HEK293(LgBit) Cells; host or cells: HEK293(LgBit) knock-in cells. The method, boiled down:
as §1

Structures are written as SMILES.

Sequence of GSPT1 (P15170 whole entry): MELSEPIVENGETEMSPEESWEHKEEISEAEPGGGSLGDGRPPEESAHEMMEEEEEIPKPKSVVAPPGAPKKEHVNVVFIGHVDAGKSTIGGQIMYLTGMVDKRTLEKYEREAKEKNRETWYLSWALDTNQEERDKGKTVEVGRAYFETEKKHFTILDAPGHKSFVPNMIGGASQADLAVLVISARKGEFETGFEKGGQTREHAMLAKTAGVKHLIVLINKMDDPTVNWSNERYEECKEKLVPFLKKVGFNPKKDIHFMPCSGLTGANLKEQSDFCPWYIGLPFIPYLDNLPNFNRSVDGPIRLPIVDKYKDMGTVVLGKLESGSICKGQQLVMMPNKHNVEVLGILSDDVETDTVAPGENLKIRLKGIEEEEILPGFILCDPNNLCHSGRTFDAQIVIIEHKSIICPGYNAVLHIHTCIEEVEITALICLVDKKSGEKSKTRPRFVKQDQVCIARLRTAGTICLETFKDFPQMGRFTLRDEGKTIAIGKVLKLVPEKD
Sequence of GSPT1 (Q96SW2 whole entry): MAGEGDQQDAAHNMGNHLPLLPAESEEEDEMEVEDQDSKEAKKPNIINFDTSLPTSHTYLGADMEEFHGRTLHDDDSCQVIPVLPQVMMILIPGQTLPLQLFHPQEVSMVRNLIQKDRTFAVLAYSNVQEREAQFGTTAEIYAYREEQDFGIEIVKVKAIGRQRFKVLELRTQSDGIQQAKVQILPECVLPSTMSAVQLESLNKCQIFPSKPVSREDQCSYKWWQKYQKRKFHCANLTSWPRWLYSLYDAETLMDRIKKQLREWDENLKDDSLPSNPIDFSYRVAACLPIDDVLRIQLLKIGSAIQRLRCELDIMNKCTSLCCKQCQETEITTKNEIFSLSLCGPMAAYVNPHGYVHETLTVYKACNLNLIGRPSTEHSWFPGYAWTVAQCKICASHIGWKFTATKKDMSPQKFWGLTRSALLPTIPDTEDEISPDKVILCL
Sequence of GSPT1 (Q16531 whole entry partner): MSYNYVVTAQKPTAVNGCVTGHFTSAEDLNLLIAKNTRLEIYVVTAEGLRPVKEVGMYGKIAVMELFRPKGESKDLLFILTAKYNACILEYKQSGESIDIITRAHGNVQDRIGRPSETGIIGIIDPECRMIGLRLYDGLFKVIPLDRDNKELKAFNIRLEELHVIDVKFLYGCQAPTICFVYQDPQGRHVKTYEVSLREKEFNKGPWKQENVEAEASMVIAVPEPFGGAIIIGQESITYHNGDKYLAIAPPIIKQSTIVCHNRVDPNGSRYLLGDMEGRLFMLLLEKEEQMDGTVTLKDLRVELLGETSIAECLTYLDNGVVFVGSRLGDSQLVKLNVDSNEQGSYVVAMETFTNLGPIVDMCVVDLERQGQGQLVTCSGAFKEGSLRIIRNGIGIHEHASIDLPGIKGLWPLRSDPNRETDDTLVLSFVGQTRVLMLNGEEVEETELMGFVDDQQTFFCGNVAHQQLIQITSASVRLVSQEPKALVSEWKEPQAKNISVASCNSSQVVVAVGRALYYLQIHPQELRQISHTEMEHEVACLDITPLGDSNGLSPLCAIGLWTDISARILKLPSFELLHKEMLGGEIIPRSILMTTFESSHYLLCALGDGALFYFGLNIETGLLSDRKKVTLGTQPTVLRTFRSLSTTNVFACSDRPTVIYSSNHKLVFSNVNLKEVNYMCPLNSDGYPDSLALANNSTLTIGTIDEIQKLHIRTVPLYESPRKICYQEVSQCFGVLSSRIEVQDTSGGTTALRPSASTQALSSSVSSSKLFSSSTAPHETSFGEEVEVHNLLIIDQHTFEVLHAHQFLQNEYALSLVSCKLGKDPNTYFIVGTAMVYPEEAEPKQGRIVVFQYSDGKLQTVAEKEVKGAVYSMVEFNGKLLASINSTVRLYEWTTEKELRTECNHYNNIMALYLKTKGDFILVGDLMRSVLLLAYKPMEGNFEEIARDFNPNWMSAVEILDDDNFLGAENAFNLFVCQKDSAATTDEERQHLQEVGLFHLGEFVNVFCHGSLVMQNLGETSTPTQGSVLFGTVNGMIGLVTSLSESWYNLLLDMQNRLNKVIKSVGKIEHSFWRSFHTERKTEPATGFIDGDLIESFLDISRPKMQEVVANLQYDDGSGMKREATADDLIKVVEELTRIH
T1 sequence (P48729 whole entry): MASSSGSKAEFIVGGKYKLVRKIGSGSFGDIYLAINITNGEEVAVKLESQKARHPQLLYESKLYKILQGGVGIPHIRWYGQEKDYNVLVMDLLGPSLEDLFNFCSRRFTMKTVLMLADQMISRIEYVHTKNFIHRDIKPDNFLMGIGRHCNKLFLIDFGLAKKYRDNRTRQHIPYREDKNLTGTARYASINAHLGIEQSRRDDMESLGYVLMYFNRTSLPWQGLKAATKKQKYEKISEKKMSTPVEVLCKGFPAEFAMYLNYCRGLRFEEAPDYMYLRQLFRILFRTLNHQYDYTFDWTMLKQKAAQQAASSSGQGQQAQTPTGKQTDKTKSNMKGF
T1 sequence (Q96SW2 whole entry): as the sequence (Q96SW2 whole entry) above
T1 sequence (Q16531 whole entry partner): as the sequence (Q16531 whole entry partner) above

Broadly, the DC50 is the concentration at which degradation of the target reaches its halfway point. Low values mean a more potent degrader, high ones a less potent degrader. On to `Cn1ncc(-c2ccc3c(c2)CN(C2CCC(=O)NC2=O)C3=O)c1-c1cccs1` (stereo not shown) [Example 471], for which, in assay [1] (six hours), the “CK1α Ymin” value was “C (C = 0-10% remaining)” and the DC50 is < 25 nM. In addition, in assay [2] (six hours), the DC50 is ≥ 25 nM and the “GSPT1 Ymin” value is “F (F = >75-100% remaining)”.
The like results for `Cc1cccc(-c2nc(-c3ccc4c(c3)CN(C3CCC(=O)NC3=O)C4=O)cn2C)c1` (stereo not shown) [Example 570] were, in that order, “C (C = 0-10% remaining)”, < 25 nM, ≥ 25 nM and “E (E = >25-75% remaining)”.
The like results for `Cn1cnc(-c2ccc3c(c2)CN(C2CCC(=O)NC2=O)C3=O)c1-c1cnn(C(C)(C)C)c1` (stereo not shown) [Example 492] were, in that order, “F (F = >75-100% remaining)”, ≥ 25 nM, ≥ 25 nM and “F (F = >75-100% remaining)”.
For `Cn1cnc(-c2ccc3c(c2)CN(C2CCC(=O)NC2=O)C3=O)c1-c1ccc(C#N)s1` (stereo not shown) [Example 342], in assay [1] (six hours incubation), the “CK1α Ymin” value is “F (F = >75-100% remaining)” and the DC50 is ≥ 25 nM. Moreover, in assay [2] (six hours incubation), the DC50 is ≥ 25 nM and the “GSPT1 Ymin” value is given as “F (F = >75-100% remaining)”.
Consider `Cn1ncc(-c2ccc3c(c2)CN(C2CCC(=O)NC2=O)C3=O)c1-c1ccsc1` (stereo not shown) [Example 95], for which, in assay [1] (six hours incubation), the “CK1α Ymin” value was “D (D = >10- 25% remaining)” and the DC50 is < 25 nM. In assay [2] (six hours incubation), the DC50 is ≥ 25 nM and the “GSPT1 Ymin” value was “F (F = >75-100% remaining)”.
For `Cn1ncc(-c2ccc3c(c2)CN(C2CCC(=O)NC2=O)C3=O)c1-c1ccc(Cl)c(C#N)c1` (stereo not shown) [Example 119] the same measures were “E (E = >25-75% remaining)”, ≥ 25 nM, ≥ 25 nM and “F (F = >75-100% remaining)”.
In the case of `Cc1cc(C)cc(-c2nc(-c3ccc4c(c3)CN(C3CCC(=O)NC3=O)C4=O)cn2C)c1` (stereo not shown) [Example 576], in assay [1] (six hours), the “CK1α Ymin” value is “C (C = 0-10% remaining)” and the DC50 was < 25 nM. Also, in assay [2] (six hours), the DC50 is < 25 nM and the “GSPT1 Ymin” value is given as “F (F = >75-100% remaining)”.
In the case of `CC(C)Cn1cc(-c2c(-c3ccc4c(c3)CN(C3CCC(=O)NC3=O)C4=O)cnn2C)cn1` (stereo not shown) [Example 384], in assay [1] (six hours), the “CK1α Ymin” value is “E (E = >25-75% remaining)” and the DC50 is ≥ 25 nM. In assay [2] (six hours), the DC50 was < 25 nM and the “GSPT1 Ymin” value was “F (F = >75-100% remaining)”.
In the case of `Cc1ccc(-c2c(-c3ccc4c(c3)CN(C3CCC(=O)NC3=O)C4=O)ncn2C)cc1Cl` (stereo not shown) [Example 197], in assay [1] (six hours incubation), the “CK1α Ymin” value is reported as “E (E = >25-75% remaining)” and the DC50 is < 25 nM. Further, in assay [2] (six hours incubation), the DC50 is < 25 nM and the “GSPT1 Ymin” value is “E (E = >25-75% remaining)”.
Regarding `Cn1cnc(-c2ccc3c(c2)CN(C2CCC(=O)NC2=O)C3=O)c1-c1cccnc1` (stereo not shown) [Example 482], in assay [1] (six hours), the “CK1α Ymin” value is “D (D = >10- 25% remaining)” and the DC50 is < 25 nM. In addition, in assay [2] (six hours), the DC50 was < 25 nM and the “GSPT1 Ymin” value was “E (E = >25-75% remaining)”.
On to `Cn1c(-c2ccc3c(c2)CN(C2CCC(=O)NC2=O)C3=O)cnc1N1CCCCC1` (stereo not shown) [Example 537, 3-(5-(1-methyl-2-(piperidin-1-yl)-1H-imidazol-5-yl)-1-oxoisoindolin-2-yl)piperidine-2,6-dione], for which, in assay [1] (six hours), the “CK1α Ymin” value is given as “D (D = >10- 25% remaining)” and the DC50 was < 25 nM. In addition, in assay [2] (six hours), the DC50 is ≥ 25 nM and the “GSPT1 Ymin” value is “F (F = >75-100% remaining)”.
The like results for `Cn1ncc(-c2ccc3c(c2)CN(C2CCC(=O)NC2=O)C3=O)c1-c1ccc(F)cc1C#N` (stereo not shown) [Example 438] were, in that order, “E (E = >25-75% remaining)”, ≥ 25 nM, ≥ 25 nM and “F (F = >75-100% remaining)”.
Turning to `Cn1ncc(-c2ccc3c(c2)CN(C2CCC(=O)NC2=O)C3=O)c1-c1cccc2c1OCC2` (stereo not shown) [Example 105], in assay [1] (six hours incubation), the “CK1α Ymin” value is recorded as “E (E = >25-75% remaining)” and the DC50 is < 25 nM. Moreover, in assay [2] (six hours incubation), the DC50 was ≥ 25 nM and the “GSPT1 Ymin” value is on record as “F (F = >75-100% remaining)”.
On to `Cn1ncc(-c2ccc3c(c2)CN(C2CCC(=O)NC2=O)C3=O)c1-c1cccc(C#N)n1` (stereo not shown) [Example 455], for which, in assay [1] (six hours), the “CK1α Ymin” value was “E (E = >25-75% remaining)” and the DC50 is ≥ 25 nM. Moreover, in assay [2] (six hours), the DC50 was ≥ 25 nM and the “GSPT1 Ymin” value is “F (F = >75-100% remaining)”.
`Cn1ncc(-c2ccc3c(c2)CN(C2CCC(=O)NC2=O)C3=O)c1-c1cccc(N2CCCC2)c1` (stereo not shown) [Example 55]: in assay [1] (six hours incubation), the “CK1α Ymin” value was “E (E = >25-75% remaining)” and the DC50 was < 25 nM. Besides, in assay [2] (six hours incubation), the DC50 was ≥ 25 nM and the “GSPT1 Ymin” value was “F (F = >75-100% remaining)”.
For `COc1ccc(-c2c(-c3ccc4c(c3)CN(C3CCC(=O)NC3=O)C4=O)cnn2C)cc1` (stereo not shown) [Example 70] the same measures were “C (C = 0-10% remaining)”, < 25 nM, ≥ 25 nM and “F (F = >75-100% remaining)”.
For `COc1ccccc1-c1c(-c2ccc3c(c2)CN(C2CCC(=O)NC2=O)C3=O)ncn1C` (stereo not shown) [Example 235] the same measures were “D (D = >10- 25% remaining)”, < 25 nM, ≥ 25 nM and “F (F = >75-100% remaining)”.
For `Cn1cc(-c2ccc3c(c2)CN(C2CCC(=O)NC2=O)C3=O)nc1-c1ccc(OC(F)F)cc1` (stereo not shown) [Example 569], in assay [1] (six hours), the “CK1α Ymin” value is “C (C = 0-10% remaining)” and the DC50 is < 25 nM. Moreover, in assay [2] (six hours), the DC50 is < 25 nM and the “GSPT1 Ymin” value was “F (F = >75-100% remaining)”.
In the case of `Cn1cnc(-c2ccc3c(c2)CN([C@@H]2CCC(=O)NC2=O)C3=O)c1-c1ccc(F)cc1` [Example 24, (R)-3-(5-(5-(4-fluorophenyl)-1-methyl-1H-imidazol-4-yl)-1-oxoisoindolin-2-yl) piperidine-2,6-dione], in assay [1] (six hours incubation), the “CK1α Ymin” value is “C (C = 0-10% remaining)” and the DC50 is < 25 nM. Besides, in assay [2] (six hours incubation), the DC50 was ≥ 25 nM and the “GSPT1 Ymin” value is “E (E = >25-75% remaining)”.
Take `Cn1ccc(-c2c(-c3ccc4c(c3)CN(C3CCC(=O)NC3=O)C4=O)ncn2C)n1` (stereo not shown) [Example 505]: in assay [1] (six hours), the “CK1α Ymin” value is on record as “D (D = >10- 25% remaining)” and the DC50 was < 25 nM. Moreover, in assay [2] (six hours), the DC50 was < 25 nM and the “GSPT1 Ymin” value is on record as “F (F = >75-100% remaining)”.
As to `Cn1ncc(-c2ccc3c(c2)CN(C2CCC(=O)NC2=O)C3=O)c1-c1ccc2c(c1)OC(F)(F)O2` (stereo not shown) [Example 428, 3-(5-(5-(2,2-difluorobenzo[d][1,3]dioxol-5-yl)-1-methyl-1H-pyrazol-4-yl)-1-oxoisoindolin-2-yl)piperidine-2,6-dione], in assay [1] (six hours), the “CK1α Ymin” value was “C (C = 0-10% remaining)” and the DC50 is < 25 nM. In addition, in assay [2] (six hours), the DC50 was ≥ 25 nM and the “GSPT1 Ymin” value is reported as “F (F = >75-100% remaining)”.
As to `Cc1sccc1-c1c(-c2ccc3c(c2)CN(C2CCC(=O)NC2=O)C3=O)ncn1C` (stereo not shown) [Example 231], in assay [1] (six hours incubation), the “CK1α Ymin” value is “D (D = >10- 25% remaining)” and the DC50 is < 25 nM. Besides, in assay [2] (six hours incubation), the DC50 is ≥ 25 nM and the “GSPT1 Ymin” value is given as “F (F = >75-100% remaining)”.
Turning to `Cn1cc(-c2ccc3c(c2)CN(C2CCC(=O)NC2=O)C3=O)nc1-c1ccc(C#N)nc1` (stereo not shown) [Example 572], in assay [1] (six hours), the “CK1α Ymin” value is recorded as “D (D = >10- 25% remaining)” and the DC50 was < 25 nM. Besides, in assay [2] (six hours), the DC50 is < 25 nM and the “GSPT1 Ymin” value is “F (F = >75-100% remaining)”.
Consider `Cn1ncc(-c2ccc3c(c2)CN(C2CCC(=O)NC2=O)C3=O)c1-c1cncnc1` (stereo not shown) [Example 362], for which, in assay [1] (six hours incubation), the “CK1α Ymin” value was “E (E = >25-75% remaining)” and the DC50 is < 25 nM. In assay [2] (six hours incubation), the DC50 was ≥ 25 nM and the “GSPT1 Ymin” value is reported as “F (F = >75-100% remaining)”.
For `Cn1c(C2CC2)nc(-c2ccc3c(c2)CN(C2CCC(=O)NC2=O)C3=O)c1-c1cccnc1` (stereo not shown) [Example 44, 3-(5-(2-Cyclopropyl-1-methyl-5-(pyridin-3-yl)-1H-imidazol-4-yl)-1-oxoisoindolin-2-yl)piperidine-2,6-dione] the same measures were “C (C = 0-10% remaining)”, < 25 nM, ≥ 25 nM and “F (F = >75-100% remaining)”.
With `Cn1cc(-c2ccc3c(c2)CN(C2CCC(=O)NC2=O)C3=O)nc1C1CCOCC1` (stereo not shown) [Example 532, 3-(5-(1-methyl-2-(tetrahydro-2H-pyran-4-yl)-1H-imidazol-4-yl)-1-oxoisoindolin-2-yl)piperidine-2,6-dione], in assay [1] (six hours), the “CK1α Ymin” value is listed as “D (D = >10- 25% remaining)” and the DC50 is < 25 nM. Besides, in assay [2] (six hours), the DC50 was ≥ 25 nM and the “GSPT1 Ymin” value was “F (F = >75-100% remaining)”.
The like results for `Cn1nc(-c2ccc3c(c2)CN(C2CCC(=O)NC2=O)C3=O)nc1[C@H]1CC[C@@H](C)CC1` (stereo partly shown) [Example 617, 3-(5-(1-methyl-5-((1s,4s)-4-methylcyclohexyl)-1H-1,2,4-triazol-3-yl)-1-oxoisoindolin-2-yl)piperidine-2,6-dione] were, in that order, “E (E = >25-75% remaining)”, < 25 nM, < 25 nM and “F (F = >75-100% remaining)”.
As for `COc1cccc(-c2c(-c3ccc4c(c3)CN(C3CCC(=O)NC3=O)C4=O)cnn2C)c1` (stereo not shown) [Example 69], in assay [1] (six hours incubation), the “CK1α Ymin” value was “E (E = >25-75% remaining)” and the DC50 was < 25 nM. In assay [2] (six hours incubation), the DC50 was ≥ 25 nM and the “GSPT1 Ymin” value is “F (F = >75-100% remaining)”.
